Values of other authors, collected in US20160228670A1, “SYSTEM FOR NITRIC OXIDE INHALATION” (ADVANCED […] (AIT) LTD., priority 2013, published 2016).
Where two headings read alike, the source gives them in different places.

## [N]=O [NO, nitric oxide]
NO concentration in air 1 ppm
  t1/2 of NO to NO2: 3500 min
NO concentration in air 10 ppm
  t1/2 of NO to NO2: 350 min
NO concentration in air 100 ppm
  t1/2 of NO to NO2: 35 min
NO concentration in air 1,000 ppm
  t1/2 of NO to NO2: 3.5 min
NO concentration in air 10,000 ppm
  t1/2 of NO to NO2: 0.35 min
NO concentration in air 20,000 ppm
  t1/2 of NO to NO2: 0.175 min
